Measured values published in US20230278972A1, “SUBSTITUTED HALOALKYL SULFONANILIDE HERBICIDES” (FMC Corporation, priority 2020, published 2023).

Experiments:
Type in all cases: in vivo
[1] = test system: barnyardgrass (Echinochloa crus-galli); assay: Test A preemergence, barnyardgrass; conditions: Preemergence; for Plant response rating, Barnyardgrass: 0 to 100 scale (0 no effect, 100 complete control)
How it was run: (§1)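 After sowing into a sand-amended loam, pots for the preemergence test were treated by spraying directly onto soil. In parallel, seedlings at the one- to two-leaf stage and 2 to 10 cm tall were treated postemergence with the identical surfactant-containing formulation.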

kochia (Bassia scoparia) [2] = assay: Test A preemergence, kochia; conditions: Preemergence; for Plant response rating, Kochia: 0 to 100 scale (0 no effect, 100 complete control)
How it was run: as §1

[3] = test system: ragweed (common ragweed, Ambrosia artemisiifolia); assay: Test A preemergence, ragweed; conditions: Preemergence; for Plant response rating, Ragweed: 0 to 100 scale (0 no effect, 100 complete control)
How it was run: as §1

[4] = test system: Ryegrass, Italian (Italian ryegrass, Lolium multiflorum); assay: Test A preemergence, Ryegrass, Italian; conditions: Preemergence; for Plant response rating, Ryegrass, Italian: 0 to 100 scale (0 no effect, 100 complete control)
How it was run: as §1

[5] = test system: Foxtail, Giant (giant foxtail, Setaria faberi); assay: Test A preemergence, Foxtail, Giant; conditions: Preemergence; for Plant response rating, Foxtail, Giant: 0 to 100 scale (0 no effect, 100 complete control)
How it was run: as §1

[6] = test system: pigweed (Amaranthus retroflexus); assay: Test A preemergence, pigweed; conditions: for Plant response rating, Pigweed: 0 to 100 scale (0 no effect, 100 complete control)
How it was run: as §1

[7] = test system: barnyardgrass (Echinochloa crus-galli); assay: Test A postemergence, barnyardgrass; conditions: Postemergence, 0 to 100 scale (0 no effect, 100 complete control)
How it was run: as §1

kochia (Bassia scoparia) [8] = assay: Test A postemergence, kochia; conditions: Postemergence, 0 to 100 scale (0 no effect, 100 complete control)
How it was run: as §1

[9] = test system: ragweed (common ragweed, Ambrosia artemisiifolia); assay: Test A postemergence, ragweed; conditions: Postemergence, 0 to 100 scale (0 no effect, 100 complete control)
How it was run: as §1

[10] = test system: Ryegrass, Italian (Italian ryegrass, Lolium multiflorum); assay: Test A postemergence, Ryegrass, Italian; conditions: Postemergence, 0 to 100 scale (0 no effect, 100 complete control)
How it was run: as §1

[11] = test system: Foxtail, Giant (giant foxtail, Setaria faberi); assay: Test A postemergence, Foxtail, Giant; conditions: Postemergence, 0 to 100 scale (0 no effect, 100 complete control)
How it was run: as §1

[12] = test system: pigweed (Amaranthus retroflexus); assay: Test A postemergence, pigweed; conditions: Postemergence, 0 to 100 scale (0 no effect, 100 complete control)
How it was run: as §1

[13] = test system: wheat (Triticum aestivum); assay: Test A postemergence, wheat; conditions: Postemergence, 0 to 100 scale (0 no effect, 100 complete control)
How it was run: as §1

corn (Zea mays) = assay: Test A postemergence, corn; conditions: Postemergence, 0 to 100 scale (0 no effect, 100 complete control)
How it was run: as §1

[14] = test system: blackgrass (Alopecurus myosuroides); assay: Test A postemergence, blackgrass; conditions: Postemergence, 0 to 100 scale (0 no effect, 100 complete control)
How it was run: as §1

[15] = test system: galium (catchweed bedstraw, Galium aparine); assay: Test A postemergence, galium; conditions: Postemergence, 0 to 100 scale (0 no effect, 100 complete control)
How it was run: as §1

[16] = 1000 g ai/ha, visual injury, approx. 10 days
[17] = 125 g ai/ha, visual injury on 0 to 100 scale (0 no effect, 100 complete control), approximately 10 days
[18] = 125 g ai/ha, visual injury approx. 10 days
[19] = 500 g ai/ha, visual injury, approx. 10 days

With `Cc1ccc(C(=O)N2CCC(C)CC2)cc1NS(=O)(=O)C(F)(F)F` [Compound 7] the “Plant response rating, Barnyardgrass” value ([1]; 1000 g ai/ha) was 80, the “Plant response rating, Kochia” value (kochia (Bassia scoparia) [2]; 1000 g ai/ha) was 30 and the “Plant response rating, Ragweed” value ([3]; 1000 g ai/ha) was 80. For the same compound, the “Plant response rating, Ryegrass, Italian” value ([4]; 1000 g ai/ha) was 60, the “Plant response rating, Foxtail, Giant” value ([5]; 1000 g ai/ha) was 90 and the “Plant response rating, Pigweed” value ([6]; 1000 g ai/ha) was 80. The “Plant response rating, Barnyardgrass” value [7, 16] was 20, the “Plant response rating, Kochia” value (kochia (Bassia scoparia) [8]; [16]) was 40 and the “Plant response rating, Ragweed” value [9, 16] was 20. For the same compound, the “Plant response rating, Ryegrass, Italian” value [10, 16] was 90, the “Plant response rating, Foxtail, Giant” value [11, 16] was 0 and the “Plant response rating, Pigweed” value [12, 16] was 20. The “Plant response rating, Wheat” value [13, 16] was 0, the “Plant response rating, Corn” value (corn (Zea mays); [16]) was 0 and the “Plant response rating, Blackgrass” value [14, 16] was 20. The “Plant response rating, Galium” value [15, 16] was 40.

For `Cc1cc(C)c(C(=O)N2CCC(F)CC2)cc1NS(=O)(=O)C(F)(F)F` [Compound 8], the “Plant response rating, Barnyardgrass” value ([1]; 1000 g ai/ha) was 100, the “Plant response rating, Kochia” value (kochia (Bassia scoparia) [2]; 1000 g ai/ha) was 100 and the “Plant response rating, Ragweed” value ([3]; 1000 g ai/ha) was 90. The “Plant response rating, Ryegrass, Italian” value ([4]; 1000 g ai/ha) was 100, the “Plant response rating, Foxtail, Giant” value ([5]; 1000 g ai/ha) was 100 and the “Plant response rating, Pigweed” value ([6]; 1000 g ai/ha) was 100. The “Plant response rating, Barnyardgrass” value [7, 16] was 80, the “Plant response rating, Kochia” value (kochia (Bassia scoparia) [8]; [16]) was 80 and the “Plant response rating, Ragweed” value [9, 16] was 90. The “Plant response rating, Ryegrass, Italian” value [10, 16] was 80, the “Plant response rating, Foxtail, Giant” value [11, 16] was 90 and the “Plant response rating, Pigweed” value [12, 16] was 80. The “Plant response rating, Wheat” value [13, 16] was 40, the “Plant response rating, Corn” value (corn (Zea mays); [16]) was 30 and the “Plant response rating, Blackgrass” value [14, 16] was 70. The “Plant response rating, Galium” value [15, 16] was 20.

In the case of `Cc1cc(C)c(C(=O)N2CC(C)OC(C)C2)cc1NS(=O)(=O)C(F)(F)F` (stereo not drawn) [Compound 9], the “Barnyardgrass plant response rating” value [1, 17] is reported as 100, the “Plant response rating, Barnyardgrass” value ([1]; 500 g ai/ha) is reported as 100 and the “Kochia plant response rating” value (kochia (Bassia scoparia) [2]; [17]) is reported as 70. For the same compound, the “Plant response rating, Kochia” value (kochia (Bassia scoparia) [2]; 500 g ai/ha) was 90, the “Ragweed plant response rating” value [3, 17] was 90 and the “Plant response rating, Ragweed” value ([3]; 500 g ai/ha) was 90. The “Ryegrass, Italian plant response rating” value [4, 17] was 90, the “Plant response rating, Ryegrass, Italian” value ([4]; 500 g ai/ha) was 100 and the “Foxtail, Giant plant response rating” value [5, 17] was 80. The “Plant response rating, Foxtail, Giant” value ([5]; 500 g ai/ha) was 100, the “Pigweed plant response rating” value [6, 17] was 30 and the “Plant response rating, Pigweed” value ([6]; 500 g ai/ha) was 80. For the same compound, the “Plant response rating, Barnyardgrass” value [7, 18] was 80, the “Plant response rating, Barnyardgrass” value [7, 19] was 90 and the “Plant response rating, Kochia” value (kochia (Bassia scoparia) [8]; [18]) was 10. The “Plant response rating, Kochia” value (kochia (Bassia scoparia) [8]; [19]) was 30, the “Plant response rating, Ragweed” value [9, 18] was 70 and the “Plant response rating, Ragweed” value [9, 19] was 80. For the same compound, the “Plant response rating, Ryegrass, Italian” value [10, 18] was 70, the “Plant response rating, Ryegrass, Italian” value [10, 19] was 80 and the “Plant response rating, Foxtail, Giant” value [11, 18] was 20. For the same compound, the “Plant response rating, Foxtail, Giant” value [11, 19] was 90, the “Plant response rating, Pigweed” value [12, 18] was 60 and the “Plant response rating, Pigweed” value [12, 19] was 80. For the same compound, the “Plant response rating, Wheat” value [13, 18] was 60, the “Plant response rating, Wheat” value [13, 19] was 70 and the “Plant response rating, Corn” value (corn (Zea mays); [18]) was 0. The “Plant response rating, Corn” value (corn (Zea mays); [19]) was 70, the “Plant response rating, Blackgrass” value [14, 18] was 30 and the “Plant response rating, Blackgrass” value [14, 19] was 30. The “Plant response rating, Galium” value [15, 18] was 80 and the “Plant response rating, Galium” value [15, 19] was 90.

In the case of `Cc1cc(C)c(C(=O)N2CCN(C)CC2)cc1NS(=O)(=O)C(F)(F)F` [Compound 10], the “Plant response rating, Barnyardgrass” value ([1]; 1000 g ai/ha) is reported as 40, the “Plant response rating, Kochia” value (kochia (Bassia scoparia) [2]; 1000 g ai/ha) is reported as 60 and the “Plant response rating, Ragweed” value ([3]; 1000 g ai/ha) is reported as 90. The “Plant response rating, Ryegrass, Italian” value ([4]; 1000 g ai/ha) was 90, the “Plant response rating, Foxtail, Giant” value ([5]; 1000 g ai/ha) was 80 and the “Plant response rating, Pigweed” value ([6]; 1000 g ai/ha) was 100. For the same compound, the “Plant response rating, Barnyardgrass” value [7, 16] was 10, the “Plant response rating, Kochia” value (kochia (Bassia scoparia) [8]; [16]) was 40 and the “Plant response rating, Ragweed” value [9, 16] was 80. For the same compound, the “Plant response rating, Ryegrass, Italian” value [10, 16] was 60, the “Plant response rating, Foxtail, Giant” value [11, 16] was 20 and the “Plant response rating, Pigweed” value [12, 16] was 80. For the same compound, the “Plant response rating, Wheat” value [13, 16] was 0, the “Plant response rating, Corn” value (corn (Zea mays); [16]) was 10 and the “Plant response rating, Blackgrass” value [14, 16] was 0. The “Plant response rating, Galium” value [15, 16] was 80.

In the case of `Cc1cc(C)c(C(=O)N2CCC(C#N)CC2)cc1NS(=O)(=O)C(F)(F)F` [Compound 11], the “Plant response rating, Barnyardgrass” value ([1]; 1000 g ai/ha) is reported as 100, the “Plant response rating, Kochia” value (kochia (Bassia scoparia) [2]; 1000 g ai/ha) is reported as 90 and the “Plant response rating, Ragweed” value ([3]; 1000 g ai/ha) is reported as 80. The “Plant response rating, Ryegrass, Italian” value ([4]; 1000 g ai/ha) was 0, the “Plant response rating, Foxtail, Giant” value ([5]; 1000 g ai/ha) was 100 and the “Plant response rating, Pigweed” value ([6]; 1000 g ai/ha) was 100. The “Plant response rating, Barnyardgrass” value [7, 16] was 90, the “Plant response rating, Kochia” value (kochia (Bassia scoparia) [8]; [16]) was 60 and the “Plant response rating, Ragweed” value [9, 16] was 80. The “Plant response rating, Ryegrass, Italian” value [10, 16] was 70, the “Plant response rating, Foxtail, Giant” value [11, 16] was 90 and the “Plant response rating, Pigweed” value [12, 16] was 100. For the same compound, the “Plant response rating, Wheat” value [13, 16] was 80, the “Plant response rating, Corn” value (corn (Zea mays); [16]) was 60 and the “Plant response rating, Blackgrass” value [14, 16] was 50. The “Plant response rating, Galium” value [15, 16] was 90.
